Laboratory results published in patent US20010021710A1, “NOVEL CIS-3,4-CHROMAN DERIVATIVES USEFUL IN THE PREVENTION OR TREATMENT OF ESTROGEN RELATED DISEASES OR SYNDROMES” (priority 1996, published 2001).

SMILES	melting point
Oc1ccc2c(c1)OC[C@@H](c1ccc(F)cc1)[C@H]2c1ccc(OCCN2CCCC2)cc1 (racemic) [Example 7, (±)-cis-7-Hydroxy-3-(4-fluorophenyl)-4-(4-(2-pyrrolidinoethoxy)phenyl)chromane]	164 to 167 °C
Oc1ccc2c(c1)OC[C@@H](c1ccc(F)cc1)[C@H]2c1ccc(OCCN2CCCCC2)cc1 (racemic) [Example 8, (±)-cis-7-Hydroxy-3-(4-fluorophenyl)-4-(4-(2-piperidinoethoxy)phenyl)-chromane]	146 to 147 °C
Oc1ccc2c(c1)OC[C@@H](c1ccc(F)cc1)[C@H]2c1ccc(OCCCN2CCCCC2)cc1 (racemic) [Example 9, (±)-cis-7-Hydroxy-3-(4-fluorophenyl)-4-(4-(3-piperidinopropoxy)phenyl)chromane]	78 to 84 °C
Oc1ccc([C@@H]2COc3cc(O)ccc3[C@@H]2c2ccc(OCCN3CCCC3)cc2)cc1 (racemic) [Example 10, (±)-cis-7-Hydroxy-3-(4-hydroxyphenyl)-4-(4-(2-pyrrolidinoethoxy)phenyl)chromane]	112 to 116 °C
Cc1ccc([C@@H]2COc3cc(O)ccc3[C@@H]2c2ccc(OCCN3CCCC3)cc2)cc1 (racemic) [Example 12, (±)-cis-7-Hydroxy-3-(4-methylphenyl)-4-(4-(2-pyrrolidinoethoxy)phenyl)chromane]	161 to 165 °C
Cc1ccc([C@@H]2COc3cc(O)ccc3[C@@H]2c2ccc(OCCN3CCCCC3)cc2)cc1 (racemic) [Example 13, (±)-cis-7-Hydroxy-3-(4-methylphenyl)-4-(4-(2-piperidinoethoxy)phenyl)chromane]	146 to 147.5 °C
Cc1cccc([C@@H]2COc3cc(O)ccc3[C@@H]2c2ccc(OCCN3CCCC3)cc2)c1 (racemic) [Example 16, (±)-cis-7-Hydroxy-3-(3-methylphenyl)-4-(4-(2-pyrrolidinoethoxy)phenyl)chromane]	85 to 90 °C
Oc1ccc2c(c1)OC[C@@H](c1cccc(F)c1)[C@H]2c1ccc(OCCN2CCCC2)cc1 (racemic) [Example 17, (±)-cis-3-(3-Fluorophenyl)-7-hydroxy-4-(4-(2-pyrrolidinoethoxy)phenyl)chromane]	146 to 150 °C
Oc1cccc([C@@H]2COc3cc(O)ccc3[C@@H]2c2ccc(OCCN3CCCCC3)cc2)c1 (racemic) [Example 19, (±)-cis-7-Hydroxy-3-(3-hydroxyphenyl)-4-(4-(2-piperidinoethoxy)phenyl)chromane]	144 °C (dec.)
Oc1ccc2c(c1)OC[C@@H](c1cccc(C(F)(F)F)c1)[C@H]2c1ccc(OCCN2CCCC2)cc1 (racemic) [Example 21, (±)-cis-7-Hydroxy-4-(4-(2-pyrrolidinoethoxy)phenyl)-3-(3-(trifluoromethyl)phenyl)-chromane]	87 to 89 °C
Oc1ccc2c(c1)OC[C@@H](c1cccc(C(F)(F)F)c1)[C@H]2c1ccc(OCCN2CCCCC2)cc1 (racemic) [Example 22, (±)-cis-7-Hydroxy-4-(4-(2-piperidinoethoxy)phenyl)-3-(3-(trifluoromethyl)phenyl)-chromane]	118 to 119 °C
Oc1ccc2c(c1)OC[C@@H](c1ccccc1F)[C@H]2c1ccc(OCCN2CCCC2)cc1 (racemic) [Example 23, (±)-cis-3-(2-Fluorophenyl)-7-hydroxy-4-(4-(2-pyrrolidinoethoxy)phenyl)chromane]	190 °C (dec.)
Oc1ccc2c(c1)OC[C@@H](c1c(F)c(F)c(F)c(F)c1F)[C@H]2c1ccc(OCCN2CCCC2)cc1 (racemic) [Example 24, (±)-cis-7-Hydroxy-3-(2,3,4,5,6-pentafluorophenyl)-4-(4-(2-pyrrolidinoethoxy)phenyl)chromane]	125 °C (dec.)
Oc1ccc2c(c1)OC[C@@H](c1c(F)c(F)c(F)c(F)c1F)[C@H]2c1ccc(OCCN2CCCCC2)cc1 (racemic) [Example 25, (±)-cis-7-Hydroxy-3-(2,3,4,5,6-pentafluorophenyl)-4-(4-(2-piperidinoethoxy)phenyl)chromane]	174 °C (dec.)
Oc1ccc2c(c1)OC[C@@H](c1ccc(C(F)(F)F)cc1)[C@H]2c1ccc(OCCN2CCCC2)cc1 [Example 1, (+)-cis-7-Hydroxy-4-(4-(2-pyrrolidinoethoxy)phenyl)-3-(4-(trifluoromethyl)phenyl)-chromane]	100 °C (dec.)
